Tested on: lysosome functions
Assay: Inhibition of Abs degradation using lysosome inhibitor
Format: cell-based
Settings: 10 μg/ml of Ab, 2 h at 37° C.
Procedure: In order to confirm that antibodies reached the lysosome were they are degraded, cells were treated or not with bafilomycine A1, a potent inhibitor of lysosome functions. Cells were then incubated with 10 μg/ml of Ab to be tested at 4° C., washed and incubated for 2 h at 37° C. The internalized Ab was detected after cell permeabilisation using a secondary anti-mouse IgG-Alexa 488 Ab.

## CO/C1=C\C(C)=C\[C@@H](C)[C@@H](O)[C@@H](C)C/C(C)=C/C=C/[C@H](OC)[C@@H]([C@@H](C)[C@@H](O)[C@H](C)[C@@]2(O)C[C@@H](O)[C@H](C)[C@@H](C(C)C)O2)OC1=O [bafilomycine A1]
  degradation of intracellular Ab: prevented the degradation of intracellular Ab
